Test results: US9140688B2, “Sperm staining and sorting methods” (INGURAN, LLC, priority 2011, dated 2015)

Key:
Type in all cases: cell-based
[1] = test system: bovine sperm; experiment: Post thaw motility of sex sorted, frozen-thawed bovine sperm (Example 1); conditions: average over all bulls, Red with 16-17 μl, Yellow with 14-15 μl Hoechst 33342 per 2 ml; for Post thaw motility, average 0 Hour: dye 20 g/L in second TALP
Method: (§1) Sperm was collected from 10 different bulls on a routine collection schedule using an artificial vagina over the course of 4 days. The 10 bulls included both Jersey bulls and Holstein bulls. All ejaculates contained greater than 60% progressive motility and greater than 70% morphological normal sperm. Antibiotics were added within 15 minutes of collection.
(§2) Red food dye treatment 40% —A reduced volume of red food dye No. 40 control was established. Sperm was diluted to 160×10^6 sperm per ml in a modified TALP buffer, as described in Table 1, at a pH of 7.4. Samples collected from Jersey bulls were incubated with 16 μl of Hoechst 33342 per 2 ml of sample for between 45 and 60 minutes at 34° C., while samples collected from Holstein bulls were incubated 17 μl of Hoechst 33342 per 2 ml of sample for between 45 and 60 minutes at 34° C. After incubation an equal volume of a second modified TALP was added reducing the concentration to 80×10^6. The second modified TALP includes the components described in Table 1 with the addition of 4% egg yolk, 40 μM red food dye No. 40 (20 g/L) and the pH dropped to 5.5 with HCl.
Yellow Food dye treatment—Yellow food dye was included in a second group at an equal concentration. Sperm was diluted to 160×10^6 sperm per ml in a modified TALP buffer, as described in Table 1, at a pH of 7.4. Samples collected from Jersey bulls were incubated with 14 μl of Hoechst 33342 per 2 ml of sample for between 45 and 60 minutes at 34° C., while sample collected from Holstein bulls were incubated 15 μl of Hoechst 33342 per 2 ml of sample for between 45 and 60 minutes at 34° C. After incubation an equal volume of a second modified TALP was added reducing the concentration to 80×10^6. The second modified TALP includes the components described in Table 1 with the addition 4% egg yolk, 20 g/L yellow food dye No. 6 and a pH dropped to 5.5 with HCl.
Just prior to sorting, each sample was filtered though a 40 μm nylon mesh. Each sample was sorted with an MoFlo SX XDP (Beckman Coulter, Inc., CA USA) operating at 40 psi. A tris-citrate-fructose sheath fluid was used comprising Tris(hydroxymethyl)aminomethane (Sigma Chemical Co, St. Louis, Mo., USA) citric acid monohydrate (Sigma Chemical Co, St. Louis, Mo., USA) and fructose (Sigma Chemical Co, St. Louis, Mo., USA). Antibiotics were additionally added to the sheath fluid.
Unquenched sperm having the desired sex characteristics were collected into a single tube with a tris-egg yolk catch fluid and the remaining sperm was removed with waste. […]
(§3) Straws were thawed the following day for motility measurements at 0 hour and 3 hours. Percent intact acrosomes were measured as well, and the overall averages over all bulls on each day are illustrated in Table 3. […]

[2] = test system: bovine sperm; experiment: Post thaw percent intact acrosomes (PIA) of sex sorted bovine sperm (Example 1); conditions: average over all bulls
Method: as §1
as §2, with “HCl. […]” for “HCl.”
as §3

[3] = test system: canine sperm; experiment: Post thaw motility of sex sorted canine sperm on CASA (Example 4); conditions: for Motile, average / Progressive, average: 0 Hr post thaw
Method: Sperm was collected from a single canine at room temperature into CaniPro Chill 5, available from Minitube, Wis., USA, then centrifuged into a pellet and resuspended in a Tris buffer at a pH of 6.8.
Samples were extended to 40×10^6 sperm/ml in 1 ml volumes with the Tris buffer described in Example 1 but set to a pH of 7.2. Ten samples were then stained 4, 4, 5, 5, 7, 8, 8, 9, 9, and 10 μL of Hoechst 33342 and quenched with one of two quenching dyes at a concentration of 50 μM in a second buffer Tris buffer.
Red food dye No. 40 quencher—1 ml Tris at a pH 6.3 was added with red food dye No. 40 into samples stained with 4, 5, 8, 9, 10 μL Hoechst 33342. The red food dye No. 40 was added at a concentration of about 50 μM.
Yellow food dye No. 6 quencher—1 ml Tris at a pH 6.3 was added with yellow food dye No. 6 into samples stained with 4, 5, 7, 8, 9 μL Hoechst 33342. The yellow food dye No. 6 was added at the same concentration as the red food dye No. 40 quencher, at about 50 μM.
5 million cells were sex sorted with a MoFlo SX XPD into 50 mL Falcon tubes having 3.5 mL of a Tris-egg yolk catch fluid, described in Example 1 for both X and Y populations. Two samples were sorted, the red food dye No. 40 quenched treatment with 9 μL Hoechst 33342 and the yellow food dye […] quenched treatment with 7 μL Hoechst 33342.
Straws were then frozen and stored in liquid nitrogen.
Straws were thawed for 30 sec in a 38° C. water bath and their motilities were examined on CASA.
Table 12 illustrates the average motilities and progressive motilities for the sorted treatments. Canine sperm quenched with yellow food dye No. 6 provided about 4.5% more motile sperm in the X population and 6.5% more motile sperm in the Y population. Similarly, the yellow quenched dye provided 7% better progressive motility in the X population and 8% better progressive motility in the Y population.

SMILES | Post thaw motility, average 3 Hour [1] | Post thaw motility, average 0 Hour [1] | Average PIA (percent intact acrosomes) [2] | Motile, average ([3]; X population) | Progressive, average ([3]; X population) | Motile, average ([3]; Y population) | Progressive, average ([3]; Y population) | better progressive motility than with red quencher ([3]; X population) | more motile sperm than with red quencher ([3]; X population) | better progressive motility than with red quencher ([3]; Y population) | more motile sperm than with red quencher ([3]; Y population)
COc1cc(S(=O)(=O)O)c(C)cc1N=Nc1c(O)ccc2cc(S(=O)(=O)O)ccc12 [Red 40, 6-hydroxy-5-[(2-methoxy-5-methyl-4-sulfophenyl)azo]-2-naphthalenesulfonic acid, reference compound] | 47.0% | 56.6% | 70.8% | 19.5 | 11.5 | 18.5 | 13 |  |  |  | 
O=S(=O)([O-])c1ccc(N=Nc2c(O)ccc3cc(S(=O)(=O)[O-])ccc23)cc1.[Na+].[Na+] [Yellow 6, Disodium 6-hydroxy-5-[(4-sulfophenyl)azo]-2-naphthalenesulfononate] | 49.0% | 57.7% | 71.3% | 24 | 18.5 | 25 | 21 | 7% | about 4.5% | 8% | 6.5%
